{"source": "patent US10045962B2", "about": "(priority 2014, dated 2018)", "origin": "cited, not measured here", "key": {"[1]": {"system": "reuptake of norepinephrine", "details": "pre-clinical tests; cited from earlier work"}, "[2]": {"system": "reuptake of dopamine", "details": "pre-clinical tests; cited from earlier work"}, "[3]": {"system": "adrenergic receptors", "details": "in vitro tests; cited from earlier work"}, "[4]": {"system": "monoamine oxidase", "details": "cited from earlier work"}, "[5]": {"system": "histaminergic receptors", "details": "in vitro tests; cited from earlier work"}, "[6]": {"system": "reuptake of serotonin", "details": "pre-clinical tests; cited from earlier work"}, "[7]": {"system": "cholinergic receptors", "details": "in vitro tests; cited from earlier work"}, "[8]": {"system": "dopaminergic receptors", "details": "in vitro tests; cited from earlier work"}}, "data": [{"smiles": "CNCC[C@H](Oc1cccc2ccccc12)c1cccs1", "note": "[duloxetine]", "values": [{"measurement": "block of reuptake of norepinephrine", "setting": "[1]", "result": "effectively block"}, {"measurement": "block of reuptake of dopamine", "setting": "[2]", "result": "merely slightly block"}, {"measurement": "affinity to adrenergic receptors", "setting": "[3]", "result": "no significant affinity"}, {"measurement": "inhibition of monoamine oxidase", "setting": "[4]", "result": "does not inhibit"}, {"measurement": "affinity to histaminergic receptors", "setting": "[5]", "result": "no significant affinity"}, {"measurement": "block of reuptake of serotonin", "setting": "[6]", "result": "effectively block"}, {"measurement": "affinity to cholinergic receptors", "setting": "[7]", "result": "no significant affinity"}, {"measurement": "affinity to dopaminergic receptors", "setting": "[8]", "result": "no significant affinity"}]}]}
